Consider 2 compounds from ChEMBL document CHEMBL1201862, “PubChem BioAssay data set” (2004).

The source made the active and inactive calls.

Usually EC50 stands for the concentration needed to bring the measured effect to its halfway point.

Test [1] concerns HEK293. Put plainly: membrane integrity loss in HEK cells – cell-based, fluorescence, cytotoxicity control for IDE activator project, dose response (AID 588440).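 Further: cytotoxicity by LDH release measuring loss of membrane integrity.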 The following applies: Homo sapiens. Format: functional.
In test [2] the target is T1, Insulin-degrading enzyme (Homo sapiens, UniProt P14735). Put plainly: recombinant IDE activation, cell-free – biochemical, fluorescence polarization, counter-screen for IDE activator project, dose response (AID 588681). (In general: Fluorescence polarisation rises when a labelled molecule tumbles more slowly, as on binding a larger partner.)
The target of test [3] is T1, Insulin-degrading enzyme. The experiment in a line: cellular IDE activation of Abeta substrate cleavage – fluorescence polarization, HEK cells, dose response (AID 588439). The class given is functional, cell-based.
Test [4] concerns HEK293. The experiment in a line: optical interference in Abeta FP readout, dose response, artefact control for IDE activator project, biochemical, fluorescence polarization (AID 588442). Format: functional, cell-based. The conditions noted are these: Homo sapiens.
The target in test [5] is T2, Orexin/Hypocretin receptor type 1 (Homo sapiens, UniProt O43613). The experiment in a line: Fluorescence-based cell-based high throughput dose response assay for antagonists of the orexin 1 receptor (OX1R; HCRTR1). [Related pubchem assays (depositor defined):AID434989, AID435008, AID463079, AID485270, AID492963, AID492964, AID492965, AID493232, AID504717, AID504718]. The class given is functional.

In test [6] the target is T3, Polyadenylate-binding protein 1 (Homo sapiens, UniProt P11940). The experiment in a line: MLLE binding blockers, Cy5 peptide tracer – biochemical, fluorescence polarization, Cy5-PAM2 peptide, secondary, miRNA deadenylation inhibitor project, dose response (AID 602260). Format: functional. The conditions noted are these: read-out: IC50_Mean.
Test [7] in a line: Counterscreen for antagonists of the orexin 1 receptor (OX1R; HCRTR1): Fluorescence-based cell-based high throughput dose response assay to identify antagonists of the parental CHO cell line. [Related pubchem assays (depositor defined):AID434989, AID435008, AID463079, AID485270, AID492963, AID492964, AID492965, AID493232, AID504699, AID504701]. Format: functional.
The target in test [8] is T4, RNA-binding protein pos-1 (Caenorhabditis elegans, UniProt G5EF15).
T4 sequence (G5EF15 whole entry): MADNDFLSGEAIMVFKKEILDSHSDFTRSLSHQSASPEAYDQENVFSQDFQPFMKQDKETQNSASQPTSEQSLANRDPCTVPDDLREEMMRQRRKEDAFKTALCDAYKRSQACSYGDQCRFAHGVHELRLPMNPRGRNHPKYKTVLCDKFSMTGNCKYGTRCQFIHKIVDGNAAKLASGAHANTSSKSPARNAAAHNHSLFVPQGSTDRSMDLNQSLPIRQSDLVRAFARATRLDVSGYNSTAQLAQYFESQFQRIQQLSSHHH
The experiment in a line: disruptors of C. elegans POS-1 RNA interaction – biochemical, fluorescence polarization, dose response (AID 1964).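 Further: purified POS-1 fused to maltose binding protein made in E. coli; potency of compounds blocking POS-1 binding to fluorescent RNA.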

The target of test [9] is T5, Orexin receptor type 2 (Homo sapiens, UniProt O43614). The experiment in a line: Counterscreen assay for antagonists of the orexin 1 receptor (OX1R; HCRTR1): Fluorescence-based cell-based dose response assay for antagonists of the orexin 2 receptor (OX2R; HCRTR2), run by assay provider. Format: functional. In general terms: The purpose of a counterscreen is to sort out artefacts and off-target activity.

For test [10], the target named is T5, Orexin receptor type 2. The experiment in a line: Counterscreen assay for antagonists of the orexin 1 receptor (OX1R; HCRTR1): Homogeneous Time Resolved Fluorescence (HTRF)-based cell-based dose response assay for antagonists of the orexin 2 receptor (OX2R; HCRTR2), run by assay provider. Format: functional.
In test [11] the target is T3, Polyadenylate-binding protein 1. The experiment in a line: MLLE domain peptide-binding blockers, IC50 – biochemical, fluorescence polarization, FITC-PAM2 peptide, dose response (AID 602259). The class given is functional. The following applies: read-out: IC50_Mean.
Test [12] addresses T6, Zinc finger protein mex-5 (Caenorhabditis elegans, UniProt Q9XUB2).
T6 sequence (Q9XUB2 whole entry): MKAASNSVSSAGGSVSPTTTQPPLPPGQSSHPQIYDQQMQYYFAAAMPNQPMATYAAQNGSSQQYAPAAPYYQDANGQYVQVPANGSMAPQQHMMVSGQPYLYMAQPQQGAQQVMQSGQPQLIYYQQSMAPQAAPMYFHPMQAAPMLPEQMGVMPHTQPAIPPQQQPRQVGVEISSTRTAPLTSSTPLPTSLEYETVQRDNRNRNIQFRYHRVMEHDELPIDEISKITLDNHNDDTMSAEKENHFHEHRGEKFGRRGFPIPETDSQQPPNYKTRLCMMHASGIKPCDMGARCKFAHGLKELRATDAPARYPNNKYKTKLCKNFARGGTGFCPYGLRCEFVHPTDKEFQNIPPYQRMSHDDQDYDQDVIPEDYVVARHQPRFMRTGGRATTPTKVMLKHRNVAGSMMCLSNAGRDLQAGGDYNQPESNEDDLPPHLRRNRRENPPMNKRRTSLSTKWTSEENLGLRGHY
The experiment in a line: potency of MEX-5 RNA-binding blockers – biochemical, C. elegans, fluorescence polarization, dose response (AID 1960).

For test [13], the target named is T2, Orexin/Hypocretin receptor type 1. The experiment in a line: Homogeneous Time Resolved Fluorescence (HTRF)-based cell-based high throughput dose response assay for antagonists of the orexin 1 receptor (OX1R; HCRTR1). [Related pubchem assays (depositor defined):AID434989, AID435008, AID463079, AID485270, AID492963, AID492964, AID492965, AID493232, AID504717, AID504718]. Format: functional. A general note: In TR-FRET formats the signal depends on donor and acceptor labels being close together.

In the next test the test system is CHO-K1. The experiment in a line: Counterscreen for antagonists of the orexin 1 receptor (OX1R; HCRTR1): Homogeneous time resolved fluorescence (HTRF)-based cell-based dose response assay to identify antagonists of the parental CHO-K1 cell line. [Related pubchem assays (depositor defined):AID434989, AID435008, AID463079, AID485270, AID492963, AID492964, AID492965, AID493232, AID504699, AID504701]. Format: functional. The conditions noted are these: Cricetulus griseus.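 Further: potency for inhibition of ATP-stimulated IP1 production as antagonists.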

T5 sequence (O43614 whole entry): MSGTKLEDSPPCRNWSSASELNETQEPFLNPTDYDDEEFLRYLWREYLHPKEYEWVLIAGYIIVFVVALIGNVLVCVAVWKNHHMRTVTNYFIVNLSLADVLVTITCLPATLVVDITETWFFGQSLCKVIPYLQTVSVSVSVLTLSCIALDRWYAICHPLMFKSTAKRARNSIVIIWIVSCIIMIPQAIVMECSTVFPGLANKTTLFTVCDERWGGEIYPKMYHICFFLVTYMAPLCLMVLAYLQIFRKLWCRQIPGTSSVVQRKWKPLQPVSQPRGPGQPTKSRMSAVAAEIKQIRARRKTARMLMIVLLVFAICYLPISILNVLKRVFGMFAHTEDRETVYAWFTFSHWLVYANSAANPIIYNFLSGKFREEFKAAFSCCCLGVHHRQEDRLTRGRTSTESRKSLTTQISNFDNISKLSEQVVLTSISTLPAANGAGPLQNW
T2 sequence (O43613 whole entry): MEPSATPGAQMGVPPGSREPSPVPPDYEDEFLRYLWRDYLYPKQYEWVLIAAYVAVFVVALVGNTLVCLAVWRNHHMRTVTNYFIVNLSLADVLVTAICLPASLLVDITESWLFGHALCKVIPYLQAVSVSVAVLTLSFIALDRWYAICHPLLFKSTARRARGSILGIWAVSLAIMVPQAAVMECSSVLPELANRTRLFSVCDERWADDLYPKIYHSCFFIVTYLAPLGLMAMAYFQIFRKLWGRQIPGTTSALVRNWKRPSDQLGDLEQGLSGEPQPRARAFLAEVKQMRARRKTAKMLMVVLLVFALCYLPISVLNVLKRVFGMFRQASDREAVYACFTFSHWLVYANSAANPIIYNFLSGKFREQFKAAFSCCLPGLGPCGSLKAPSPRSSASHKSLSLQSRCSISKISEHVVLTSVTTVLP
T3 sequence (P11940 whole entry): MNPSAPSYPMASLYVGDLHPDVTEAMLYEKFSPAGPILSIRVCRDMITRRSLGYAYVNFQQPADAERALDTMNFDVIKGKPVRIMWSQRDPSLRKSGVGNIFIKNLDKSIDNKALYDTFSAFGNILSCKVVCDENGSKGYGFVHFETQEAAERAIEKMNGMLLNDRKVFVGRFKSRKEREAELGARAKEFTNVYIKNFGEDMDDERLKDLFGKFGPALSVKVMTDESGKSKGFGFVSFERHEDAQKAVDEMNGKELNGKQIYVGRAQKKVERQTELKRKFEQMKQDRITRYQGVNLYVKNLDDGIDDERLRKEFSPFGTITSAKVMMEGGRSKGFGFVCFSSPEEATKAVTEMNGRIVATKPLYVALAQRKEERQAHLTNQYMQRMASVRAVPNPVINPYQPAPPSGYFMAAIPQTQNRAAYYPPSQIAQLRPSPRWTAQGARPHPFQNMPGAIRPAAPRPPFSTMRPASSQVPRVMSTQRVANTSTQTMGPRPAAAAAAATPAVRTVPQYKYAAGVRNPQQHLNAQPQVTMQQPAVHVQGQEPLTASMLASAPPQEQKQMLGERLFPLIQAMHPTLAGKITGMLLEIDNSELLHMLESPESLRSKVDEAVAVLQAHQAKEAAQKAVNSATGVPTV
T1 sequence (P14735 whole entry): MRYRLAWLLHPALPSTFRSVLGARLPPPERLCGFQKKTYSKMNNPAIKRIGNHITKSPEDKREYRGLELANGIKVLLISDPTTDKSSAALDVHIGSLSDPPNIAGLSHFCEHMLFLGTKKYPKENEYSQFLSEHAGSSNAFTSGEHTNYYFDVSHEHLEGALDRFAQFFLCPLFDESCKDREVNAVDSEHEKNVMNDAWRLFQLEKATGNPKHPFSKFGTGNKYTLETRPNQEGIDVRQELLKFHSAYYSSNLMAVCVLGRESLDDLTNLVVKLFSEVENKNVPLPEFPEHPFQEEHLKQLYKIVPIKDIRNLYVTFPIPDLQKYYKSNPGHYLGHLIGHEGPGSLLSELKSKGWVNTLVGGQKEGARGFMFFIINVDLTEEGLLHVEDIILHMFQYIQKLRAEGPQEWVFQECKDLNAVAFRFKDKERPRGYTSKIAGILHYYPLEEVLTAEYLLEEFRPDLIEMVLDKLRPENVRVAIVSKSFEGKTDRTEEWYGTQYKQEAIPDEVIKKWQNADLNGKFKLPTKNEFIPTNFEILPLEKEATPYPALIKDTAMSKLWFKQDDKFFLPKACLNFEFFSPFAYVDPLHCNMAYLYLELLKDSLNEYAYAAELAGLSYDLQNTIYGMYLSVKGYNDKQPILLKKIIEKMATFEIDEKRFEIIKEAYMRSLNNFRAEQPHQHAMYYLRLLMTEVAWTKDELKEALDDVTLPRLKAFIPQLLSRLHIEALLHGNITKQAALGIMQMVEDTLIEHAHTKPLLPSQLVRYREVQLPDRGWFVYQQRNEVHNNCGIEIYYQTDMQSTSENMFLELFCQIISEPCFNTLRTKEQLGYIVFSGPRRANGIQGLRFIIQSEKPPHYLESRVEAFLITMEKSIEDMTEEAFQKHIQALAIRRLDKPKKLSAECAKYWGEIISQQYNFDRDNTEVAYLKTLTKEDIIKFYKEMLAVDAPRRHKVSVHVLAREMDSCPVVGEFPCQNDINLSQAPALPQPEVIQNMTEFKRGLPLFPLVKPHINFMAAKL

Consider `CC(C)CCn1nnnc1CN1CCN(c2ccccc2)CC1`, for which the IC50 in the test on HEK293 [1] was > 89.1 µM (inactive). Further, the EC50 is 29.8 µM (inactive) on Insulin-degrading enzyme [2], 32.3 µM (inactive) at Insulin-degrading enzyme [3] and > 55.9 µM (inactive) in the test on HEK293 [4].
Turning to `COc1ccc(/C=c2\sc3nc(-c4ccccc4OC)nn3c2=O)c(OC)c1`, the IC50 was 0.526 µM (active) in [5]; > 66 µM (inactive) in [6]; > 49.8 µM (inactive) in test [7]; 33.5 µM (inactive) on Orexin receptor type 2 [9]; > 50 µM (inactive) on Orexin receptor type 2 [10]; 48.3 µM (inactive) in test [11]. Further, the figures for the IC50 (in test [13]; with CHO-K1) were 0.723 µM (active) and > 66.2 µM (inactive), respectively. In addition, the EC50 was 21.5 µM (active) in test [8] and 31.4 µM (active) in test [12].
